Reference: patent US10766866B2, “Deterrents for arthropods and marine organisms” (priority 2017, dated 2020)

What was measured:
[1] = tested on: Anopheles gambiae mosquito isoform A OctR (AgAOctR); test: OctR activation, change in intracellular calcium; type: cell-based; conditions: for selectivity Ki(Hsα2-AR)/EC50(OctR): AgAOctR over Homo sapien α2-AR subtypes
Excerpt: (§1) Functional expression of cloned arthropod OctRs and human α2-ARs: The cDNAs for α-like OctRs from different arthropod species (e.g., Anopheles gambiae, Aedes aegypti, Periplaneta americana, Drosophila melanogaster, Ixodes scapularis, Balanus improvises) and for α2-AR subtypes from humans were individually subcloned into mammalian expression vectors. These plasmids, which harbor a resistance gene for the selection drug G418 and the cDNA sequence for the receptor of interest, were individually transfected into mammalian cells using a calcium phosphate precipitation method. G418 selection was then employed to generated stable clonal cell lines. Utilizing rapid filtration radioligand binding techniques, the cell surface density of receptor expression of the individual clonal cell lines was determined at equilibrium and those with similar high levels of expression were selected for further experiments. Briefly, binding conditions were 50 mM Tris binding buffer pH 7.4 at 25° C. and an ice-cold wash buffer 10 mM Tris-HCl, pH 7.4). The radioligand was [3H]rauwolscine and non-specific binding was determined in the presence of 10 μM atipamezole. Following the addition of membranes prepared from the clonal cell lines, samples were mixed and allowed 2 hr. to reach equilibrium before rapid filtration and washing through 0.3% PEI-treated GF/C filters. The radioactivity remaining on the filters was quantified by scintillation counting. Receptor density (Bmax) was back calculated knowing the specific activity of the radioligand and applying the equation for a square hyperbola model: Bmax=(Y·(KD+X))/X, where Y is [specifically bound radioligand] and X=[radio ligand concentration]. The affinity (KD) for the radioligand for each receptor was determined in separate saturation isotherm binding experiments using the same binding conditions as describe above.
(§2) Measurement of OctR activation by measuring changes in intracellular calcium: Activation of arthropod α-like OctRs increases intracellular calcium via a Gq-coupling mechanism. This involves activation of phospholipase C leading to an increase in intracellular inositol triphosphate (IP3) which then activates IP3-gated calcium channels in the endoplasmic reticulum causing a transient rise in intracellular calcium. These changes in intracellular calcium upon OctR activation were measured by loading cells with intracellular calcium sensitive dye CALCIUM 6QR and reading the change in calcium-induced fluorescent signal over time on a FlexStation 3 microplate reader.

[2] = tested on: Ixodes scapularis tick OctR (IsTOctR); test: OctR activation, change in intracellular calcium; type: cell-based
Excerpt: as §1, §2

[3] = molecular target: T1, human α2C adrenergic receptor (α2c-AR) (Homo sapiens, UniProt P18825); test: Measurement of intracellular cAMP (cAMP-Glo); type: cell-based, Homo sapien; conditions: in words; normalized to 1 μM forskolin; FIG. 8
T1 construct: expressed in transfected cells
T1 sequence (P18825 1-462): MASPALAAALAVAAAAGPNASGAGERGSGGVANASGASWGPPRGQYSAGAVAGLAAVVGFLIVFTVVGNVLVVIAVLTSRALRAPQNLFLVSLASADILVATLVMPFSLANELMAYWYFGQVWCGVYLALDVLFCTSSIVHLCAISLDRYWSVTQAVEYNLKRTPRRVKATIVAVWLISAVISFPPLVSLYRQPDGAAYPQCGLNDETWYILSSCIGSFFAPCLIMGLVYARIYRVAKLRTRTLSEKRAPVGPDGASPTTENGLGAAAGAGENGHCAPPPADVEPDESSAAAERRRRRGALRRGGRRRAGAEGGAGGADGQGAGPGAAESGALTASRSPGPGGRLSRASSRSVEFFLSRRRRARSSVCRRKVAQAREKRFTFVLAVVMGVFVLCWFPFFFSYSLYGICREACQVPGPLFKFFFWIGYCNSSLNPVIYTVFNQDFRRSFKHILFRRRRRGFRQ
Excerpt: as §1, with “Briefly, binding conditions were 50 mM Tris binding buffer pH 7.4 at 25° C. and an ice-cold wash buffer 10 mM Tris-HCl, pH 7.4).” left out, “Following the addition of membranes prepared from the clonal cell lines, samples were mixed and allowed 2 hr. to reach equilibrium before rapid filtration and washing through 0.3% PEI-treated GF/C filters.” left out, “The affinity (KD) for the radioligand for each receptor was determined in separate saturation isotherm binding experiments using the same binding conditions as describe above.” left out

[4] = molecular target: T2, AgAOctR (Anopheles octopamine receptor isoform A), cloned α-like OctR (Anopheles gambiae, UniProt Q7PRZ8); test: OctR activation: change in intracellular calcium (CALCIUM 6QR dye, FlexStation 3) in stably transfected mammalian cells; type: cell-based; conditions: agonist
T2 construct: Gq calcium readout
T2 sequence (Q7PRZ8 1-592): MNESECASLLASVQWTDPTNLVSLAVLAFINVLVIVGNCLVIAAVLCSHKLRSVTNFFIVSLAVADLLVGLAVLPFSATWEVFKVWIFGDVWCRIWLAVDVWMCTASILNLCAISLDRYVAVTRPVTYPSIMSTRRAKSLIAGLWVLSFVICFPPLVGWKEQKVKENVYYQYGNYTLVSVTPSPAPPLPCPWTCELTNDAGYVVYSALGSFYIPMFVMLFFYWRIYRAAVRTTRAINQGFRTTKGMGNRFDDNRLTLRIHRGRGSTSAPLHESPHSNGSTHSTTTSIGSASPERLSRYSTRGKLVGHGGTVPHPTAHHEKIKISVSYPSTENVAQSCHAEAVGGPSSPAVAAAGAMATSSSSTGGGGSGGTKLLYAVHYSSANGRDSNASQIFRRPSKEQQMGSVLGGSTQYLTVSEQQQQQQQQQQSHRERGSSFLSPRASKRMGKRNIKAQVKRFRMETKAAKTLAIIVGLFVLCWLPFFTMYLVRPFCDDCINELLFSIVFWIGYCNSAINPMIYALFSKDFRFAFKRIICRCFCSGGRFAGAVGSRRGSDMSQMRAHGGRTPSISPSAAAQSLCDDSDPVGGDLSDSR
Excerpt: as §1, §2

[5] = tested on: IsTOctR (Ixodes octopamine receptor), cloned α-like OctR; test: as above; type: cell-based, Ixodes scapularis; conditions: agonist, read-out: IsTOctR (Ixodes octopamine receptor) EC50
Excerpt: as §1, §2

[6] = tested on: AeOctR (Aedes octopamine receptor), cloned α-like OctR; test: as above; type: cell-based, Aedes aegypti; conditions: agonist
Excerpt: as §1, §2

[7] = molecular target: T3, Hsα2A-AR (human α2A adrenergic receptor) (Homo sapiens, UniProt P08913); test: [3H]rauwolscine competition radioligand binding, membranes of clonal mammalian cell lines; conditions: 50 mM Tris pH 7.4, 25° C., 2 hr, Cheng-Prusoff
T3 construct: expressed in transfected cells; membranes
Excerpt: as §1
(§3) Measurement of compound affinities by competition radioligand binding: Affinities (Ki) for compounds were determined by [3H]rauwolscine competition binding using the same binding conditions as described above. The Ki values were calculated from IC50 values using the Cheng-Prusoff equation.

[8] = molecular target: T4, Hsα2C-AR (human α2C adrenergic receptor) (Homo sapiens, UniProt P18825); test: as above; conditions: 50 mM Tris pH 7.4, 25° C., 2 hr, Cheng-Prusoff
T4 construct: expressed in transfected cells
T4 sequence (P18825 1-462): T1 sequence (P18825 1-462)
Excerpt: as §1, §3

[9] = molecular target: T1, human α2C adrenergic receptor (α2c-AR); test: Intracellular cyclic AMP (cAMP-Glo) functional assay, stably transfected mammalian cells; type: cell-based
Excerpt: as §1, with “Briefly, binding conditions were 50 mM Tris binding buffer pH 7.4 at 25° C. and an ice-cold wash buffer 10 mM Tris-HCl, pH 7.4).” left out, “Following the addition of membranes prepared from the clonal cell lines, samples were mixed and allowed 2 hr. to reach equilibrium before rapid filtration and washing through 0.3% PEI-treated GF/C filters.” left out, “The affinity (KD) for the radioligand for each receptor was determined in separate saturation isotherm binding experiments using the same binding conditions as describe above.” left out

α2-ARs = test: Functional profile at α2-ARs (preliminary studies); type: cell-based, Homo sapien
Excerpt: as §1, with “Briefly, binding conditions were 50 mM Tris binding buffer pH 7.4 at 25° C. and an ice-cold wash buffer 10 mM Tris-HCl, pH 7.4).” left out, “Following the addition of membranes prepared from the clonal cell lines, samples were mixed and allowed 2 hr. to reach equilibrium before rapid filtration and washing through 0.3% PEI-treated GF/C filters.” left out, “The affinity (KD) for the radioligand for each receptor was determined in separate saturation isotherm binding experiments using the same binding conditions as describe above.” left out

α-like OctRs = test: OctR activation, change in intracellular calcium (statements on OctRs in general); type: cell-based; conditions: relative to fluorinated AZ1411
Excerpt: as §1, with “Briefly, binding conditions were 50 mM Tris binding buffer pH 7.4 at 25° C. and an ice-cold wash buffer 10 mM Tris-HCl, pH 7.4).” left out, “Following the addition of membranes prepared from the clonal cell lines, samples were mixed and allowed 2 hr. to reach equilibrium before rapid filtration and washing through 0.3% PEI-treated GF/C filters.” left out, “The affinity (KD) for the radioligand for each receptor was determined in separate saturation isotherm binding experiments using the same binding conditions as describe above.” left out

T3 sequence (P08913 whole entry): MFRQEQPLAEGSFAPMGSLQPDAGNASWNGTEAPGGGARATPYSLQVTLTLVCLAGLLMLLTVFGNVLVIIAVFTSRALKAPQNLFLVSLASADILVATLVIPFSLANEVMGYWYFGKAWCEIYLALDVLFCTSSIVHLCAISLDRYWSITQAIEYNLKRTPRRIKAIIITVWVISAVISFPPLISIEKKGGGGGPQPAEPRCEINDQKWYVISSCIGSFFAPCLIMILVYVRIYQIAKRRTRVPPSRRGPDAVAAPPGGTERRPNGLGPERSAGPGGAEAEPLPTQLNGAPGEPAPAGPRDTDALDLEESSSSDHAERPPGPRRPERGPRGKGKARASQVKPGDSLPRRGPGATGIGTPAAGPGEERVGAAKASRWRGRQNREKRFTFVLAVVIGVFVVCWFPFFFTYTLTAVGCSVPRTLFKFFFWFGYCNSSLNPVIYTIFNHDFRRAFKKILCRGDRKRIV

Row | SMILES | selectivity Ki(Hsα2-AR)/EC50(OctR) [1] | selectivity Ki(Hsα2-AR)/EC50(OctR) ([2]; Ixodes tick OctR over Homo sapien α2-AR subtypes) | efficacy (change in intracellular cyclic AMP) [3] | potency (change in intracellular cyclic AMP) [3] | EC50 [4] [nM] | EC50 [5] [nM] | EC50 [6] [nM] | Ki [7] [nM] | Ki [8] [µM] | EC50 [9] [nM] | efficacy (full/partial agonist) ([1]; in words, FIGS. 9-12) | potency (EC50) ([1]; in words, FIGS. 9-12) | potency (EC50) ([2]; in words, FIG. 9) | efficacy (full/partial agonist) ([2]; in words, FIGS. 9, 11) | functional mode at α2-ARs (α2-ARs) | potency for OctRs compared with AZ1411 (α-like OctRs)
1 | C=C(c1cnc[nH]1)c1cccc(F)c1C [AZ1411] | highly selective | highly selective | partial agonist | low potency | 0.11 ± 0.058 | 2.9 ± 1.3 | 81 ± 46 | 494 ± 177 | 3.53 ± 1.59 | 931 |  |  |  |  |  | 
2 | C=C(c1cnc[nH]1)c1cccc(Cl)c1C [AZ1436] | highly selective |  |  |  | 0.025 ± 0.0019 | 1.8 ± 0.83 |  |  |  |  | full agonist | potent | potent | full agonist | likely an antagonist | 2-4
